Laboratory results: article PMC9879991, “Biomolecular condensates formed by designer minimalistic peptides” (Nature Communications, 2023)
Like-named read-outs stand apart in the source and are kept apart here. No end group written: not given here.

Assays:
[1] = Encapsulation efficiency of peptide droplets, fluorescein payload; type: physicochemical; conditions: C initial 10 µM, 20 mM peptide; for %EE: 20 mM Tris + 0.2 M NaCl pH 8, 15,000 g 10 min, supernatant absorbance 490 nm
Description: (§1) Next, we studied how peptide composition affects the encapsulation efficiency of the droplets by using GFP, rhodamine B, and fluorescein as fluorescent payload model systems (Fig. 4). We analyzed the encapsulation efficiency of the fluorescent payloads by using both confocal microscopy and absorbance measurements of the payloads in the dilute vs. the condensed phase (Fig. 4a–c). […] WGR-1 has the highest EE of fluorescein. In addition to π-π interactions, WGR-1 might form hydrogen bonding with the hydroxyl groups or electrostatic interactions with the deprotonated carboxylic acid of the dye.
(§2) Stock solutions (1 mM) of the fluorescein and rhodamine B dye molecules were prepared in 20 mM Tris buffer. Coacervate solutions of 20 mM peptide were prepared in 20 mM Tris + 0.2 M NaCl at pH 8. From these, a volume of 148.5 µl was mixed with 1.5 µl of dye solution in a 1.5 ml Eppendorf tube and pipetted. After 10 min the samples were centrifuged at 15,000 × g for 10 min. A volume of 120 μl from the supernatant was collected and vortexed and then the absorbance of 35 μl triplicates was measured (at λ = 490 nm for fluorescein and λ = 555 nm for RhB) in a 384 well black plate by Biotek H1 synergy plate reader (purchased from Lumitron, Israel). For GFP, a 7.5 µl of 20 mM Tris buffer to a 7.5 μl GFP aliquot from the purchased stock solution. The 15 µl of GFP solution was added to 135 µl of peptide solution and was mixed in a 1.5 ml Eppendorf tube and pipetted. The concentration of GFP at the supernatant was measured via fluorescence. All experiments were performed in triplicate. The concentration of the supernatant solutions determinate by calibration curves. Imaging was made to 30 μl of uncentrifuged samples. Efficiency of encapsulation (%EE) was calculated using Eq. 2. 2 %EE=CT−Csup/CT

[2] = type: physicochemical; conditions: for Apparent diffusion coefficient D, condensed phase (FRAP) / t1/2 of the FRAP recovery: 20 mM peptide, 0.5% FITC-labeled, tris pH 8, 0.2 M NaCl
Procedure: Next, we studied whether the peptide sequence affects the material properties of the resulting liquid droplets. For this, we performed FRAP analysis using laser scanning confocal microscopy of 0.5% FITC-labeled peptides. […] The apparent diffusion coefficient for each peptide was calculated as1 Dapp=r^2/t where t is the recovery time. The calculated apparent diffusion coefficients of the peptides were in the 1.7–5.5*10^−14 m^2 s^−1 range (Supplementary Table 1).
Fig. 3 Strength of intermolecular interactions affects peptide droplet dynamics. a–c FRAP analysis of WGR-1, WGR-3, WGR-4, and WGR-5, performed using laser scanning confocal microscopy at 20 mM in Tris buffer at pH 8 with 0.2 M NaCl using 0.5% FITC-labeled peptides. a Representative confocal microscopy images of FRAP for individual droplets. Scale bars = 5 μm. FRAP recovery plots (b), apparent diffusion coefficient (c), and t1/2 of the recovery (d). Data are presented as mean values +/− SD, n = 5 (WGR-1), 4 (WGR-3, WGR-4), and 5 (WGR-5). Source data are provided as a Source Data file.
FRAP experiments were performed by a Zeiss Zen 900 confocal microscope with ×20/0.8 NA Plan- Apochromat air objective. For each of the peptides, out of a total peptide concentration of 20 mM we used 0.5% FITC-labeled peptide, in tris buffer pH 8 with 0.2 M NaCl. A circular area with radius of 2.5 μm was bleached with a 488 nm laser 100% intensity at 10 iterations; subsequent recovery of the bleached area was recorded with a 488 nm laser. Monitoring of fluorescence recovery in the condensates was analyzed using Zen Blue 3.2 software (Zeiss). Photobleaching correction and recovery time were calculated using OriginLab 9.95. The final FRAP recovery curve is the average of recovery curves collected from n = 4–6 separate droplets.

[3] = Turbidity analysis of WGR-1 with and without 0.5% FITC-labeled peptide; type: physicochemical; conditions: Tris buffer pH 8, 0.2 M NaCl, mean of n=3
GFP = target: T1, GFP (Aequorea victoria, UniProt P42212); test: Encapsulation efficiency of peptide droplets, GFP payload; type: physicochemical; conditions: C initial 50 µg/ml, 20 mM peptide; for %EE: 20 mM Tris + 0.2 M NaCl pH 8, 15,000 g 10 min, supernatant fluorescence Ex 395/Em 509 nm
T1 construct: purchased Abcam (purchased from Zotal)
Description: as §1, §2

[4] = solution NMR, S.D. in next row
Description: Source data are provided as a Source Data file.
(1 picture or pasted object on this page, not shown here)

[5] = FRAP of WGR-1 droplets, replicate 1

WGRGRGRGWPGVGY [WGR-1]
%EE ([1]; replicate 1, given as fraction): 0.888 | %EE ([1]; replicate 2, given as fraction): 0.8098 | %EE ([1]; replicate 3, given as fraction): 0.7632 | Encapsulation efficiency (EE) ([1]; 20 mM Tris + 0.2 M NaCl pH 8, supernatant absorbance 490 nm, mean of n=3, in percent): 82.0333% | Apparent diffusion coefficient D, condensed phase (FRAP) ([2]; Dapp=r^2/t, mean of n=4-5 droplets): 4.58E-14 m^2 s^-1 | Apparent diffusion coefficient D, condensed phase (FRAP) ([2]; bleached radius 2.5 μm, droplet 1): 4.047e-14 m^2 s^-1 | t1/2 of the FRAP recovery ([2]; droplet 1): 37.1535 | t1/2 of the FRAP recovery ([2]; droplet 2): 29.5706 | t1/2 of the FRAP recovery ([2]; droplet 3): 25.8937 | t1/2 of the FRAP recovery ([2]; droplet 4): 27.3852 | t1/2 of the FRAP recovery ([2]; droplet 5): 32.7563 | x=t at y=0.5a (t1/2 of FRAP recovery) ([2]; FRAP of WGR-1 droplets, from fit, mean of 5 droplets (stdev 4.50361)): 30.5519 s | x=t at y=0.95a (time to 95% of plateau recovery) ([2]; FRAP of WGR-1 droplets, from fit, mean of 5 droplets (stdev 17.8362)): 138.34 s | x=t at y=0.5a (t1/2 of FRAP recovery) ([2]; FRAP of WGR-1 droplets, from fit, replicate 1): 37.1535 s | x=t at y=0.5a (t1/2 of FRAP recovery) ([2]; FRAP of WGR-1 droplets, from fit, replicate 2): 29.5706 s | x=t at y=0.5a (t1/2 of FRAP recovery) ([2]; FRAP of WGR-1 droplets, from fit, replicate 3): 25.8937 s | x=t at y=0.5a (t1/2 of FRAP recovery) ([2]; FRAP of WGR-1 droplets, from fit, replicate 4): 27.3852 s | x=t at y=0.5a (t1/2 of FRAP recovery) ([2]; FRAP of WGR-1 droplets, from fit, replicate 5): 32.7563 s | %recovery (mean of fitted plateau a of the FRAP recovery curves) ([2]; FRAP of WGR-1 droplets, normalized intensity fitted with parameters a, b, c, mean of 5 droplets (stdev 7.03086)): 78.6308% | D (apparent diffusion coefficient from FRAP), average ([2]; FRAP of WGR-1 droplets, average of 5 droplets (stdev 6.05E-15)): 4.58E-14 m^2 s^-1 | D (apparent diffusion coefficient from FRAP) [2, 5]: 4.05E-14 m^2 s^-1 | a (fitted plateau of normalized FRAP recovery) [2, 5]: 68.4582 | D condensed phase (FRAP), apparent diffusion coefficient ([2]; condensed phase, FRAP, mean, S.D. in next row): 4.52E-14 m^2/sec | Turbidity as asorbance at 350 nm ([3]; peptide concentration 10 (mM)): 0.3393 | Turbidity as asorbance at 350 nm ([3]; peptide concentration 20 (mM)): 2.135 | %EE (GFP; replicate 1, given as fraction): 0.8616 | %EE (GFP; replicate 2, given as fraction): 0.9526 | %EE (GFP; replicate 3, given as fraction): 0.9328 | Encapsulation efficiency (EE) (GFP; 20 mM Tris + 0.2 M NaCl pH 8, supernatant fluorescence, average of replicates, in percent): 91.5647% | D dilute phase (NMR), apparent diffusion coefficient [4]: 1.91E-10 m^2/sec
